In patent US20240287154A1, “MC3R AGONIST PEPTIDES” (The Regents of the University of Michigan, priority 2021, published 2024):
Non-standard residues stand in square brackets, D forms with d. Residues, ends and D or L forms follow the SMILES beside them. d(αMeW) = C[C@@](N)(Cc1c[nH]c2ccccc12)C(=O)O; Phe(4-I) = N[C@@H](Cc1ccc(I)cc1)C(=O)O; Nle = CCCC[C@H](N)C(=O)O; Aib = CC(C)(N)C(=O)O

Tests used:
human MC4R = human MC4R (Homo sapiens, UniProt P32245); assay: Intracellular cAMP levels in live cells, MC3R selectivity relative to MC4R; assay type: cell-based; conditions: cAMP assays in human MC3R and human MC4R stable cell lines
Chain of human MC4R (P32245 whole entry): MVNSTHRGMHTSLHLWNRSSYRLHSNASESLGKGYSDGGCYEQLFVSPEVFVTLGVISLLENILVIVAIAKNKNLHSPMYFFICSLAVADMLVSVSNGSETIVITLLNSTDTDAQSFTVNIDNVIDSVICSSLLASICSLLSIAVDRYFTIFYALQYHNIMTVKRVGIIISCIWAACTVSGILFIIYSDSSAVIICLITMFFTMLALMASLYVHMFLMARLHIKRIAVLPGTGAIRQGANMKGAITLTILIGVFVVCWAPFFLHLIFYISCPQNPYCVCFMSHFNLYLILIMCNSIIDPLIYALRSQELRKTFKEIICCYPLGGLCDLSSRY

in vitro = assay: in vitro
Method: Pooled mouse plasma was prepared and stored at −80° C. prior to use. 396 μL mouse plasma was incubated at 37° C. for 5 minutes in 1.5 mL microcentrifuge tubes. 4 μL of 100 μM test or control compound/peptide was added to each tube and incubated for 0.5, 15, 30, 60, 120, or 240 minutes. An aliquot of 40 μL of each reaction was stopped by the addition of 4 volume of cold acetonitrile containing 200 ng/mL of Setmelanotide as an internal standard (IS). The incubation solution was centrifuged at 3500 rpm for 10 minutes to precipitate protein. The supernatant was used for LC/MS/MS analysis. The natural log peak area ratio (compound peak […] area/internal standard peak area) was plotted against time and the gradient of the line determined.

| Compound | MC3R selectivity (relative to MC4R) (human MC4R) | other results |
| --- | --- | --- |
| CCCC[C@H](NC(C)=O)C(=O)N[C@H](C)C(=O)N[C@@H](Cc1c[nH]cn1)C(=O)N[C@@H](Cc1ccccc1)C(=O)N[C@@H](CCCNC(=N)N)C(=O)N[C@](C)(Cc1c[nH]c2ccccc12)C(=O)N[C@@H](CC(=O)O)C(=O)N[C@@H](CCCNC(=N)N)C(=O)N[C@@H](Cc1ccccc1)C(=O)NCC(=O)O [CTX-1510, Nle-D-Ala-His-Phe-Arg-aMe-D-Trp-Asp-Arg-Phe-Gly] (Ac-[Nle][dA]HFR[d(αMeW)]DRFG-OH) | 23 | – |
| CCCC[C@H](NC(C)=O)C(=O)N[C@H](C)C(=O)N[C@@H](Cc1c[nH]cn1)C(=O)N[C@@H](Cc1ccccc1)C(=O)N[C@@H](CCCCN)C(=O)N[C@H](Cc1c[nH]c2ccccc12)C(=O)N[C@@H](CC(=O)O)C(=O)N[C@@H](CCCNC(=N)N)C(=O)N[C@@H](Cc1ccccc1)C(=O)NCC(=O)O [CTX-1523, Nle-D-Ala-His-Phe-Lys-D-Trp-Asp-Arg-Phe-Gly] (Ac-[Nle][dA]HFK[dW]DRFG-OH) | 5,321 | – |
| CCCC[C@H](NC(C)=O)C(=O)N[C@H](C)C(=O)N[C@@H](Cc1c[nH]cn1)C(=O)N[C@@H](Cc1ccccc1)C(=O)N[C@@H](CCCNC(=N)N)C(=O)N[C@H](Cc1c[nH]c2ccccc12)C(=O)N[C@H](Cc1ccccc1)C(=O)N[C@@H](CCCNC(=N)N)C(=O)N[C@@H](Cc1ccccc1)C(=O)NCC(=O)O [CTX-1530, Nle-D-Ala-His-Phe-Arg-D-Trp-D-Phe-Arg-Phe-Gly] (Ac-[Nle][dA]HFR[dW][dF]RFG-OH) | 15 | – |
| CCCC[C@H](NC(C)=O)C(=O)N[C@H](C)C(=O)N[C@@H](Cc1c[nH]cn1)C(=O)N[C@@H](Cc1ccccc1)C(=O)N[C@@H](CCCNC(=N)N)C(=O)N[C@H](Cc1c[nH]c2ccccc12)C(=O)N[C@@H](CCCC)C(=O)N[C@@H](CCCNC(=N)N)C(=O)N[C@@H](Cc1ccccc1)C(=O)NCC(=O)O [CTX-1532, Nle-D-Ala-His-Phe-Arg-D-Trp-Nle-Arg-Phe-Gly] (Ac-[Nle][dA]HFR[dW][Nle]RFG-OH) | 184 | – |
| CCCC[C@H](NC(C)=O)C(=O)N[C@H](C)C(=O)N[C@@H](Cc1c[nH]cn1)C(=O)N[C@@H](Cc1ccccc1)C(=O)N[C@@H](CCCNC(=N)N)C(=O)N[C@H](Cc1c[nH]c2ccccc12)C(=O)N[C@@H](CCCCN)C(=O)N[C@@H](CCCNC(=N)N)C(=O)N[C@@H](Cc1ccccc1)C(=O)NCC(=O)O [CTX-1533, Nle-D-Ala-His-Phe-Arg-D-Trp-Lys-Arg-Phe-Gly] (Ac-[Nle][dA]HFR[dW]KRFG-OH) | 314 | – |
| CCCC[C@H](NC(C)=O)C(=O)N[C@H](C)C(=O)N[C@@H](Cc1c[nH]cn1)C(=O)N[C@@H](Cc1ccccc1)C(=O)N[C@@H](CCCNC(=N)N)C(=O)N[C@H](Cc1c[nH]c2ccccc12)C(=O)N[C@@H](CC(=O)O)C(=O)N[C@@H](C)C(=O)N[C@@H](Cc1ccccc1)C(=O)NCC(=O)O [CTX-1534, Nle-D-Ala-His-Phe-Arg-D-Trp-Asp-Ala-Phe-Gly] (Ac-[Nle][dA]HFR[dW]DAFG-OH) | 186 | – |
| CCCC[C@H](NC(C)=O)C(=O)N[C@H](C)C(=O)N[C@@H](Cc1c[nH]cn1)C(=O)N[C@@H](Cc1ccccc1)C(=O)N[C@@H](CCCNC(=N)N)C(=O)N[C@H](Cc1c[nH]c2ccccc12)C(=O)N[C@@H](CC(=O)O)C(=O)N[C@@H](CCCCN)C(=O)N[C@@H](Cc1ccccc1)C(=O)NCC(=O)O [CTX-1535, Nle-D-Ala-His-Phe-Arg-D-Trp-Asp-Lys-Phe-Gly] (Ac-[Nle][dA]HFR[dW]DKFG-OH) | 1,589 | – |
| CCCC[C@H](NC(C)=O)C(=O)N[C@H](C)C(=O)N[C@@H](Cc1c[nH]cn1)C(=O)N[C@@H](Cc1ccccc1)C(=O)N[C@@H](CCCNC(=N)N)C(=O)N[C@H](Cc1c[nH]c2ccccc12)C(=O)N[C@@H](CC(=O)O)C(=O)N[C@@H](CCCNC(=N)N)C(=O)N1CCC[C@H]1C(=O)NCC(=O)O [CTX-1536, Nle-D-Ala-His-Phe-Arg-D-Trp-Asp-Arg-Pro-Gly] (Ac-[Nle][dA]HFR[dW]DRPG-OH) | 72 | – |
| CCCC[C@H](NC(C)=O)C(=O)N[C@H](C)C(=O)N[C@@H](Cc1c[nH]cn1)C(=O)N[C@@H](Cc1ccccc1)C(=O)N[C@@H](CCCNC(=N)N)C(=O)N[C@H](Cc1c[nH]c2ccccc12)C(=O)N[C@@H](CC(=O)O)C(=O)N[C@@H](CCCNC(=N)N)C(=O)N[C@@H](C)C(=O)NCC(=O)O [CTX-1537, Nle-D-Ala-His-Phe-Arg-D-Trp-Asp-Arg-Ala-Gly] (Ac-[Nle][dA]HFR[dW]DRAG-OH) | 278 | – |
| CCCC[C@H](NC(C)=O)C(=O)N[C@H](C)C(=O)N[C@@H](Cc1c[nH]cn1)C(=O)N[C@@H](Cc1ccccc1)C(=O)N[C@@H](CCCNC(=N)N)C(=O)N[C@H](Cc1c[nH]c2ccccc12)C(=O)N[C@@H](CC(=O)O)C(=O)N[C@@H](CCCNC(=N)N)C(=O)N[C@@H](Cc1ccccc1)C(=O)N[C@H](C(=O)O)C(C)C [CTX-1538, Nle-D-Ala-His-Phe-Arg-D-Trp-Asp-Arg-Phe-Val] (Ac-[Nle][dA]HFR[dW]DRFV-OH) | 1,276 | – |
| CCCC[C@H](NC(C)=O)C(=O)N[C@H](C)C(=O)N[C@@H](Cc1c[nH]cn1)C(=O)N[C@@H](Cc1ccccc1)C(=O)N[C@@H](CCCNC(=N)N)C(=O)N[C@H](Cc1c[nH]c2ccccc12)C(N)=O [CTX-1539, Nle-D-Ala-His-Phe-Arg-D-Trp] (Ac-[Nle][dA]HFR[dW]-NH2) | 16 | – |
| CCCC[C@H](NC(C)=O)C(=O)N[C@H](C)C(=O)N[C@@H](Cc1c[nH]cn1)C(=O)N[C@@H](Cc1ccccc1)C(=O)N[C@@H](CCCNC(=N)N)C(=O)N[C@H](Cc1c[nH]c2ccccc12)C(=O)NCC(N)=O [CTX-1540, Nle-D-Ala-His-Phe-Arg-D-Trp-Gly] (Ac-[Nle][dA]HFR[dW]G-NH2) | 11 | – |
| CCCC[C@H](NC(C)=O)C(=O)N[C@H](C)C(=O)N[C@@H](Cc1c[nH]cn1)C(=O)N[C@@H](Cc1ccccc1)C(=O)N[C@@H](CCCNC(=N)N)C(=O)N[C@H](Cc1c[nH]c2ccccc12)C(=O)N[C@@H](Cc1ccccc1)C(N)=O [CTX-1541, Nle-D-Ala-His-Phe-Arg-D-Trp-Phe] (Ac-[Nle][dA]HFR[dW]F-NH2) | 9 | – |
| CCCC[C@H](NC(C)=O)C(=O)N[C@H](C)C(=O)N[C@@H](Cc1c[nH]cn1)C(=O)N[C@@H](Cc1ccccc1)C(=O)N[C@@H](CCCNC(=N)N)C(=O)N[C@H](Cc1c[nH]c2ccccc12)C(=O)N[C@H](Cc1ccccc1)C(N)=O [CTX-1542, Nle-D-Ala-His-Phe-Arg-D-Trp-D-Phe] (Ac-[Nle][dA]HFR[dW][dF]-NH2) | 15 | – |
| CCCC[C@H](NC(C)=O)C(=O)NC(C)(C)C(=O)N[C@@H](Cc1c[nH]cn1)C(=O)N[C@@H](Cc1ccc(I)cc1)C(=O)N[C@@H](CCCNC(=N)N)C(=O)N[C@H](Cc1c[nH]c2ccccc12)C(=O)NCC(N)=O [CTX-1545, Nle-Aib-His-Phe(4-I)-Arg-D-Trp-Gly] (Ac-[Nle][Aib]H[Phe(4-I)]R[dW]G-NH2) | 14 | – |
| CSCC[C@H](NC(=O)[C@@H](NC(=O)[C@@H](N)Cc1ccc(O)cc1)C(C)C)C(=O)NCC(=O)N[C@@H](CCCNC(=N)N)C(=O)N[C@@H](Cc1ccccc1)C(=O)N[C@@H](CCCNC(=N)N)C(=O)N[C@H](Cc1c[nH]c2ccccc12)C(=O)N[C@@H](CC(=O)O)C(=O)N[C@@H](CCCNC(=N)N)C(=O)N[C@@H](Cc1ccccc1)C(=O)NCC(=O)O [CTX-1548, Tyr-Val-Met-Gly-Arg-Phe-Arg-D-Trp-Asp-Arg-Phe-Gly] (H-YVMGRFR[dW]DRFG-OH) | 267 | – |
| CCCC[C@H](NC(=O)[C@@H](NC(=O)[C@@H](N)Cc1ccc(O)cc1)C(C)C)C(=O)NCC(=O)N[C@@H](CCCNC(=N)N)C(=O)N[C@@H](Cc1ccccc1)C(=O)N[C@@H](CCCNC(=N)N)C(=O)N[C@H](Cc1c[nH]c2ccccc12)C(=O)N[C@@H](CC(=O)O)C(=O)N[C@@H](CCCNC(=N)N)C(=O)N[C@@H](Cc1ccccc1)C(=O)NCC(=O)O [CTX-1549, Tyr-Val-Nle-Gly-Arg-Phe-Arg-D-Trp-Asp-Arg-Phe-Gly] (H-YV[Nle]GRFR[dW]DRFG-OH) | 102 | – |
| CCCC[C@H](NC(=O)[C@@H](NC(=O)[C@@H](N)Cc1ccc(O)cc1)C(C)C)C(=O)N[C@H](C)C(=O)N[C@@H](Cc1c[nH]cn1)C(=O)N[C@@H](Cc1ccc(I)cc1)C(=O)N[C@@H](CCCNC(=N)N)C(=O)N[C@H](Cc1c[nH]c2ccccc12)C(=O)N[C@@H](CC(=O)O)C(=O)N[C@@H](CCCNC(=N)N)C(=O)N[C@@H](Cc1ccccc1)C(=O)NCC(=O)O [CTX-2122, Tyr-Val-Nle-D-Ala-His-Phe(4-I)-Arg-D-Trp-Asp-Arg-Phe-Gly] (H-YV[Nle][dA]H[Phe(4-I)]R[dW]DRFG-OH) | 324 | – |
| CCN(CC)CCNC(=O)c1ccc(N)cc1 [Procainamide, reference compound] | – | Mouse Plasma Stability, time point 0 min (in vitro; mouse, 1 µM): 100.00; Mouse Plasma Stability, time point 5 min (in vitro; mouse, 1 µM): 101.53; Mouse Plasma Stability, time point 15 min (in vitro; mouse, 1 µM): 109.16; Mouse Plasma Stability, time point 30 min (in vitro; mouse, 1 µM): 103.05; Mouse Plasma Stability, time point 60 min (in vitro; mouse, 1 µM): 104.43; Mouse Plasma Stability, time point 120 min (in vitro; mouse, 120 min, 1 µM): 110.61; Mouse Plasma Stability, time point 240 min (in vitro; mouse, 240 min, 1 µM): 108.17 |
| CCN(CC)CCOC(=O)c1ccc(N)cc1 [Procaine, reference compound] | – | half-life at 1 µM (in vitro; mouse, pooled mouse plasma): 3.81 min; Mouse Plasma Stability, time point 0 min (in vitro; pooled mouse plasma, 37° C.): 100%; Mouse Plasma Stability, time point 5 min (in vitro; pooled mouse plasma, 37° C.): 40.3%; Mouse Plasma Stability, time point 15 min (in vitro; pooled mouse plasma, 37° C., in % (unit assumed)): 8.80; Mouse Plasma Stability, time point 30 min (in vitro; pooled mouse plasma, 37° C.): 2.15%; Mouse Plasma Stability, time point 60 min (in vitro; pooled mouse plasma, 37° C.): 0.44% |
